# ChEMBL document CHEMBL1131587, “Novel peptidyl phosphorus derivatives as inhibitors of human calpain I” (J Med Chem, 1998)
# Biological target: T1, Calpain-1 catalytic subunit (Homo sapiens, UniProt P07384)
# T1 sequence (P07384 whole entry): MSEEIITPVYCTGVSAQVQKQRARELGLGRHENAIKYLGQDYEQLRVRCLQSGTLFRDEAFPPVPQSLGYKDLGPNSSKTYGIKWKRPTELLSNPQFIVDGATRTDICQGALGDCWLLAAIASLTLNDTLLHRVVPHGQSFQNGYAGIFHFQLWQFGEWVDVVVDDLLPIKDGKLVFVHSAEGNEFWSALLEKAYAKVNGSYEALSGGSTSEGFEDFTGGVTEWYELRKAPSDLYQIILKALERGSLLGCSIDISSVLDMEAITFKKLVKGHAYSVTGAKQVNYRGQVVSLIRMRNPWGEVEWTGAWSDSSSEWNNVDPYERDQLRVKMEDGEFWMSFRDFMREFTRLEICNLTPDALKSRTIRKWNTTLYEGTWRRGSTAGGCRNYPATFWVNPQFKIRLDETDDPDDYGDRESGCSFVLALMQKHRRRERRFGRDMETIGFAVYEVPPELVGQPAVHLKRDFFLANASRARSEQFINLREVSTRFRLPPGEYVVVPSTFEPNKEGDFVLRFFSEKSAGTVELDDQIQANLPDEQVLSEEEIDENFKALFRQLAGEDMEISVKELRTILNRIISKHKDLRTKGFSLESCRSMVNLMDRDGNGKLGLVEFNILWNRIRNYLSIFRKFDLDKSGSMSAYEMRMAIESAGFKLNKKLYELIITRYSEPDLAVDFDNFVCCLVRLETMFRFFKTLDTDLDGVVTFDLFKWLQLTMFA
# Assay: inhibitory activity measured against recombinant human Calpain-I receptor
row,SMILES,IC50 [µM]
1,CCOP(=O)(C(=O)[C@@H](CC(C)C)NC(=O)C(CC(C)C)NC(=O)OCc1ccccc1)c1ccccc1 (stereo not given in full),0.37
2,COP(=O)(O)C(=O)[C@@H](CC(C)C)NC(=O)C(CC(C)C)NC(=O)OCc1ccccc1 (stereo not given in full),5.2
3,COP(=O)(OC)C(=O)[C@@H](Cc1ccccc1)NC(=O)C(NC(=O)OCc1ccccc1)C(C)C (stereo not given in full),7.4
4,CC(C)CC(NC(=O)OCc1ccccc1)C(=O)N[C@H](CC(C)C)C(=O)P(C)(C)=O (stereo not given in full),> 10
5,CCCCOP(=O)(OCCCC)C(=O)[C@@H](Cc1ccccc1)NC(=O)C(NC(=O)OCc1ccccc1)C(C)C (stereo not given in full),> 10
6,CC(C)C(NC(=O)OCc1ccccc1)C(=O)N[C@H](Cc1ccccc1)C(=O)P(=O)(OCc1ccccc1)OCc1ccccc1 (stereo not given in full),6

# Other lines, results leading:
row,IC50 [µM],SMILES
1,> 10,CCCCOP(=O)(OCCCC)C(=O)[C@@H](CC(C)C)NC(=O)C(CC(C)C)NC(=O)OCc1ccccc1 (stereo not given in full)
2,0.43,COP(=O)(OC)C(=O)[C@@H](CC(C)C)NC(=O)C(CC(C)C)NC(=O)OCc1ccccc1 (stereo not given in full)
3,0.35,CC(C)CC(NC(=O)OCc1ccccc1)C(=O)N[C@H](CC(C)C)C(=O)P(=O)(c1ccc(Cl)cc1)c1ccc(Cl)cc1 (stereo not given in full)
4,0.6,CCOC(=O)[C@@H](CC(C)C)NC(=O)C(CC(C)C)NC(=O)OCc1ccccc1 (stereo not given in full)
